The values below come from PMC9201908, “Expansion of the Strigolactone Profluorescent Probes Repertory: The Right Probe for the Right Application” (Frontiers in Plant Science, 2022).

“Also recorded” adds a separate entry of the source. Where two headings read alike, the source gives them in different places.

The test system of assay [1] is Arabidopsis SL-deficient mutant max3-11. As to the kind of experiment: Hydroponic assay on Arabidopsis, rosette branches. Type of assay: in vivo, Arabidopsis thaliana. The note with it: max3-11, hydroponic, 0.5 and 3 μM. Here is the method: The hydroponic assay was adapted from the study by Cornet et al. ([2021]). Seeds were surface-sterilized for 8 min in a solution of ethanol (95%) and hypochlorite solution (10%; Bayrol, Mundolsheim, France) and were rinsed two times with ethanol (100%). Each seed was sown on top of a cut 0.5 ml Eppendorf tube filled with agar medium containing 0.65% of agar and 10% of nutritive solution of 5 mM NO3. Tubes were soaked in water and stored in the dark at 4°C for 2 days. Twelve plants per pipette tip box (13 × 9 × 7 cm) were grown and supplied with nutrient solution as in the study by Boyer et al. ([2014]) at a concentration of 5 ml/L (750 ml of solution per box). Every week, the nutrient solution was renewed and every 10 days one time, a fresh batch of treatment was added to the solution. The first treatment occurred at day 27 after sowing when plants started to bolt. The number of rosette branches was counted at day 42.

The test system of assay [2] is Ppccd8 mutant plants. Briefly: Physcomitrium patens bioassay, number of filaments in the dark. Type of assay: in vivo. The note with it: 1 μM. As to the method: Assays on Physcomitrium patens were performed on plants grown in 24-well plates, starting from very small pieces of moss tissues as described by Guillory and Bonhomme ([2021]). As for pea rms1, the Ppccd8 SL synthesis mutant was used for assays, since the effect of the compounds was better seen in this mutant vs. wild type (WT; Lopez-Obando et al., [2021]). For each treatment, 24 plants were grown in PpNO3 medium [minimal medium described by Ashton et al., [1979]], dispatched in three different plates. Plants were grown for 2 weeks under control conditions, then treated with fluorophores or probes (all compounds used at 1 μM), before being placed vertically in the dark for 10 days. A single picture of each well was taken under an Axio Zoom microscope (Zeiss) with a dedicated program. Filaments were counted using ImageJ software (http://imagej.nih.gov/ij/) as described by Guillory and Bonhomme ([2021]). Twenty-four plants were tested in each treatment.

Assay [3] relates to rms1-10 pea mutant plants. As to the kind of experiment: Pea shoot-branching assay by direct application on the bud, rms1-10. The note with it: for Length of bud at node 3 /branch: direct application, rms1-10, 10 days after treatment, mean per replicate; for Bioactivity on shoot branching inhibition (bud development): rms1-10, direct application, result in words. Type of assay: in vivo, Pisum sativum. As to the method:
(§1) Pea (Pisum sativum) branching mutant plants used in this study were described previously (Rameau et al., [1997]). The SL biosynthesis rms1-10 (M3T-884) and SL response rms3-4 (M2T-30) mutants were obtained from the dwarf cv. Térèse. Plants were grown in a greenhouse under long days as described by Braun et al. ([2012]).
(§2) The compounds to be tested were applied directly to the axillary bud with a micropipette as 10 μL of a solution containing 0.1% of acetone with 2% of polyethylene glycol 1,450, 50% of ethanol, and 0.4% of DMSO. The control 0 is the treatment with 0.1% of DMSO without compound. A total of 24 plants were sown per treatment in trays (2 repetitions of 12 plants). The treatment was done 8 days after sowing, on the axillary bud at node 3. The branches at nodes 1–2 were removed to encourage the outgrowth of axillary buds at nodes above. Nodes were numbered acropetally from the first scale leaf as node 1 and cotyledonary node as node 0. Bud growth at node 3 was measured 10 days after treatment. Plants with damaged main shoot apex or showing a dead white treated bud were discarded from the analysis. The SL-deficient rms1-10 pea mutant was used for all experiments and WT Térèse as control. SL-perceived rms3-4 pea mutant was used to test that when bioactive, the analog acts via RMS3, and it was also used to check the putative toxicity of probes.

Assay [4] relates to rms1-10 pea mutant plants. As to the kind of experiment: Pea shoot-branching assay by vascular supply, rms1-10. Type of assay: in vivo, Pisum sativum. The note with it: rms1-10, 3,000 nM. Here is the method: as §1
The compounds to be tested were applied by vascular supply (Muñoz et al., [2021]). The control was the treatment with 0.1% of DMSO in water. A total of 12 plants were sown per treatment in trays and were treated with probes under node 3 bud generally 10 days after sowing. Compounds in DMSO solution were diluted with water to 3,000 nM for a treatment with 0.1% (v/v) DMSO. The branches at nodes 1 and 2 were removed to encourage the outgrowth of axillary buds at the nodes above. Nodes were numbered acropetally from the first scale leaf as node 1 and cotyledonary node as node 0. Bud growth at nodes 3 and 4 was measured with digital calipers 8–10 days after treatment. Plants with damaged main shoot apex or with a dead white treated-bud were discarded from the analysis. The SL-deficient rms1-10 pea mutant was used for all experiments.

The subject of assay [5] is rms1-10 pea mutant plants. The note with it: direct application, rms1-10, tested previously, ref De saint Germain et al 2016, cited from earlier work.
The target of the next assay is T1, RMS3 protein (Pisum sativum, UniProt A0A109QYD3).
T1 construct: GST; made in house
T1 sequence (A0A109QYD3 1-267): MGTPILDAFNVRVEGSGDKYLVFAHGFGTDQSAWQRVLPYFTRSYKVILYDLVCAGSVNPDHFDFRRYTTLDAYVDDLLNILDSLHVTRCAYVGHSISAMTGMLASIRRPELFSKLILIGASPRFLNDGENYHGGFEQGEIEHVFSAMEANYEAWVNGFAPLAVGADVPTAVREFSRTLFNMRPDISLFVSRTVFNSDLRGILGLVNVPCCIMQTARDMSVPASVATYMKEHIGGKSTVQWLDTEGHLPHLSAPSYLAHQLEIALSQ
Briefly: Enzymatic assay with profluorescent probes, RMS3. The note with it: probe 10 μM; for Cleavage kinetics by RMS3: RMS3 400 nM, 25°C, result in words; for Cleavage of probe by RMS3: protein 0.33 μM. Type of assay: biochemical.

In another assay the target is T2, OsD14 (Oryza sativa subsp. japonica, UniProt Q10QA5).
T2 construct: GST (N); made in house
T2 sequence (Q10QA5 with tags, fused parts or gaps): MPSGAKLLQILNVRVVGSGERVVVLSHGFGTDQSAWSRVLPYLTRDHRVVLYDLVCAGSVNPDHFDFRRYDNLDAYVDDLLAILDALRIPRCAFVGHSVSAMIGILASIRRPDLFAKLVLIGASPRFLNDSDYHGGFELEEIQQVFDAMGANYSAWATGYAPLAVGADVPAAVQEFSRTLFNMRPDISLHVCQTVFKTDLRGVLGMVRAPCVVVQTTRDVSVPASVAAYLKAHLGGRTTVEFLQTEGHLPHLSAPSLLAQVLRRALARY
Briefly: Enzymatic assay with profluorescent probes, OsD14. Type of assay: biochemical, Ozyza sativa. The note with it: protein 0.33 μM, probe 10 μM. Here is the method: (§3) The enzyme activity was determined by measuring the release of the fluorescent intensities of each fluorophores resulting from the cleavage of profluorescent probes by RMS3, AtD14, OsD14, and DAD2 proteins in a SPARK M10 in a 96-well format (de Saint Germain et al., [2021a]). In the assay, using an Integra Viaflo 96 robot, 50 μL of a solution of protein at 0.33 μM in same buffer was added simultaneously in all 96 wells to 50 μL of profluorescent substrate solution (at varying concentrations, prepared from a 10 mM stock solution in 100% of DMSO) in PBS (100 mM of phosphate, pH 6.8, 150 mM of NaCl). After a lag time of 15 s, the formation of fluorophores was recorded over 3 h at 15 s intervals at 25°C. […] All experiments were repeated with three technical replicates. The fluorescence of each fluorophore was also determined for each measurement at the same time frame but in the absence of enzyme in order to determine the standard curves. For rapid enzymatic assays (Figure 8A, small panel), the solution of protein was added by the injector of the plate reader and then, the well was immediately read over 5 min with 1 s intervals. Same parameters were used to determine the fluorophore concentration.

For another assay, the target named is T3, AtD14 (Arabidopsis thaliana, UniProt Q9SQR3).
T3 construct: GST; made in house
T3 sequence (Q9SQR3 1-267): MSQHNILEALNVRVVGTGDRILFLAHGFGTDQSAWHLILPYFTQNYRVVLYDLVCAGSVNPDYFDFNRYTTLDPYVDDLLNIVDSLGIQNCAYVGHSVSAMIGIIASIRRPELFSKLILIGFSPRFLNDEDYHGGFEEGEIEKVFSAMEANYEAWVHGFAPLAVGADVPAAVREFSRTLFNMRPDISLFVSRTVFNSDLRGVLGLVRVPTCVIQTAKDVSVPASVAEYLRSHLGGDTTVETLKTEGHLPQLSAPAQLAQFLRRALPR
Briefly: Enzymatic assay with profluorescent probes, AtD14. The note with it: protein 0.33 μM, probe 10 μM. Type of assay: biochemical. Here is the method: as §3

In a further assay the target is T4, DAD2 (Petunia hybrida, UniProt J9U5U9).
T4 construct: GST (N); made in house
T4 sequence (J9U5U9 1-267): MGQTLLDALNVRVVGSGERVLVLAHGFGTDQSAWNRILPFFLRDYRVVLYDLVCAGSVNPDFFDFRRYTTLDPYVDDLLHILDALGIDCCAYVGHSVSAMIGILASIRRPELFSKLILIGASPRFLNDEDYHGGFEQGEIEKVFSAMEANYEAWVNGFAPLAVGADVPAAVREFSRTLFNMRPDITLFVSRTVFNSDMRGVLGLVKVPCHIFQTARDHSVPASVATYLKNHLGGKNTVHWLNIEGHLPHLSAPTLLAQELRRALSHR
As to the kind of experiment: Enzymatic assay with profluorescent probes, DAD2. Type of assay: biochemical. The note with it: protein 0.33 μM, probe 10 μM. Here is the method:
as §3

For another assay, the system named is rms3-4 pea mutant plants. Briefly: Pea shoot-branching assay by direct application on the bud, rms3-4. Type of assay: in vivo, Pisum sativum. The note with it: rms3-4, 10 days after treatment. As to the method: as §1, §2
The test system of assay [6] is Arabidopsis SL-deficient mutant max3-11. The note with it: ref de Saint Germain et al., 2016; cited from earlier work.
Assay [7] deals with Ppccd8 mutant plants. The note with it: WT and Ppccd8; ref Hoffmann et al., 2014; Lopez-Obando et al., 2021; cited from earlier work.
Another assay deals with ShD14. Further details: method as in Xu et al., 2018. The note with it: ref Xu et al., 2018; cited from earlier work.

As to `CC1=CC(Oc2ccc3nc4ccc(=O)cc-4oc3c2)OC1=O` (racemic) [(±)-GC93, 7-[(4-Methyl-5-Oxo-2,5-Dihydrofuran-2-yl)Oxy]-3H-Phenoxazin-3-One], the “Bioactivity on number of rosette branches” value in assay [1] is “not bioactive”. Also, in the assay with Ppccd8 mutant plants [2], the “Activity on filament number” value is on record as “strongest activity”. Further, the “Length of bud at node 3 /branch” value in assay [3] (10 nM) is reported as 17.73 mm; in assay [3] (10,000 nM), 3.89 mm. Moreover, in [3], the “Bioactivity on shoot branching inhibition (bud development)” value was “inhibitory effect with statistical significance only at 10 μM”. Besides, the “Bioactivity by vascular supply compared to the coumarin derivatives series” value in assay [4] is listed as “lower bioactivity”.
Consider `CC1=CC(Oc2c(F)cc3c(C)cc(=O)oc3c2F)OC1=O` (racemic) [(±)-GC240], for which the “Length of bud at node 3 /branch” value in assay [5] (1,000 nM) is on record as 2.52 mm. Moreover, in assay [5] (5,000 nM), the “Length of bud at node 3 /branch” value is given as 2.61 mm. Besides, in assay [3], the “Bioactivity on shoot branching inhibition (bud development)” value is on record as “inhibition of bud development; also recorded: less efficient than (±)-GR24”. Besides, on RMS3 protein, the “Cleavage kinetics by RMS3” value is on record as “Two-phase cleavage kinetics; also recorded: blocked at very low concentration” and the “Cleavage of probe by RMS3” value is “able to cleave”. At OsD14, the “Affinity of the rice SL receptor suggested by cleavage profile” value was “lower affinity” and the “Cleavage of probe by OsD14” value is reported as “able to cleave”. In addition, the “Cleavage of probe by AtD14” value on AtD14 is recorded as “able to cleave”. The “Cleavage of probe by DAD2” value at DAD2 was “able to cleave”.
As for `CC1=C(C)C(Oc2c(F)cc3c(C)cc(=O)oc3c2F)OC1=O` (racemic) [(±)-GC242], the “Length of bud at node 3 /branch” value with rms3-4 pea mutant plants (1,000 nM) is listed as 35.80; in the assay with rms3-4 pea mutant plants (5,000 nM) it was 33.76; in assay [3] (10,000 nM) it was 1.77 mm. Also, the “Activity on filament number” value in the assay on Ppccd8 mutant plants [2] is given as “confirmed the previous activity”. The “Bioactivity on shoot branching inhibition (bud development)” value in assay [3] was “among the most bioactive molecules”. For the same compound, the “Bioactivity in Arabidopsis” value in assay [6] is “previously found bioactive”. For the same compound, the “Cleavage kinetics by RMS3” value on RMS3 protein is “Two-phase cleavage kinetics; also recorded: blocked at very low concentration; also recorded: two-phase kinetic”. In addition, at RMS3 protein, the “Cleavage of probe by RMS3” value is recorded as “able to cleave”. Also, the “Cleavage of probe by OsD14” value at OsD14 is on record as “able to cleave”. Besides, the “Cleavage of probe by AtD14” value at AtD14 is on record as “able to cleave”. In addition, at DAD2, the “Cleavage of probe by DAD2” value is “able to cleave”. In the assay on Ppccd8 mutant plants [7], the “Effect on filament number” value is on record as “dose-dependent decrease in the filament number”.
Turning to `CCOC(=O)c1ccccc1-c1c2ccc(=O)cc-2oc2cc(OC3C=C(C)C(=O)O3)ccc12` (racemic) [(±)-YLG, reference compound], the “Bioactivity on number of rosette branches” value in assay [1] was “not bioactive”. In the assay on ShD14, the “Cleavage by ShD14” value is given as “not able to cleave”. For the same compound, the “Activity on filament number” value in the assay with Ppccd8 mutant plants [2] was “less active”. For the same compound, the “Activity on filament number, one bioassay replication” value in the assay with Ppccd8 mutant plants [2] (Supplementary Figure 3) is reported as “no significant bioactivity”. Further, in assay [3] (10 nM), the “Length of bud at node 3 /branch” value is 24.15 mm. In addition, the “Bioactivity on shoot branching inhibition (bud development)” value in assay [3] is listed as “inhibition of bud development; also recorded: less efficient than (±)-GR24”. For the same compound, the “Cleavage of probe by OsD14” value at OsD14 was “unable to cleave”. Moreover, the “Bioactivity by vascular supply compared to the coumarin derivatives series” value in assay [4] is “lower bioactivity”.
